Experiment [1] has as its target T1, VEGF-R2 (Rattus norvegicus, UniProt O08775).
T1 construct: polyhistidine (N)
The experiment can be described thus: VEGF-R2 Screening Assay. It is filed as biochemical. Particulars: rat VEGF-R2 kinase domain, 10 μM ATP. The protocol: (§1) A kinase reaction mixture was prepared containing 50 mM Tris-HCl at pH 8, 10 mM MgCl2, 0.1 mM Na3PO4, 1 mM DTT, 10 μM ATP, 0.025 μM biotinylated histone-H1 peptide substrate and 0.2 μCuries per well ^33P-γ-ATP (2000-3000 Ci/mmol). 70 μL of the kinase reaction mixture was dispensed into the well of a Streptavidin FlashPlate.
(§2) Test compound stock in 100% DMSO (1 μL) was added to the wells resulting in a final concentration of 1% DMSO in the reaction with a 100 μL final reaction volume. Each enzyme was diluted in 50 mM Tris-HCl pH=8.0, 0.1% BSA and 30 μL was added to each well to initiate the reaction. The reaction was incubated for one hour at 30° C. At the end of the 1 hr incubation, the reaction was terminated by aspirating the mixture from the plate and washing the wells twice with PBS containing 100 mM EDTA. The biotinylated peptide substrate became immobilized on the Flashplate™ and the incorporation of ^33P-γ-ATP was measured by reading the plate on a scintillation counter. Inhibition of the enzymatic activity was measured by observing a reduced amount of ^33P-γ-ATP incorporated into the immobilized peptide.
The VEGF-R2 enzyme is a fusion protein containing a polyhistidine tag at the N terminus followed by amino acids 786 to 1343 of the rat VEGF-R2 kinase domain (Accession number U93306). The assay used 150 ng of the N-terminal biotinylated peptide biotin-KHKKLAEGSAYEEV-amide (VEGF-R2) per well.
(§3) The IC50 was derived according to the procedure described in Example 1.

Experiment [2] deals with T2, Aurora-A (Mus musculus, UniProt P97477).
T2 construct: followed by the full length protein encoding the murine Aurora-A; polyhistidine (N); made in house; host or cells: Sf9 insect cells
T2 sequence (P97477 1-395): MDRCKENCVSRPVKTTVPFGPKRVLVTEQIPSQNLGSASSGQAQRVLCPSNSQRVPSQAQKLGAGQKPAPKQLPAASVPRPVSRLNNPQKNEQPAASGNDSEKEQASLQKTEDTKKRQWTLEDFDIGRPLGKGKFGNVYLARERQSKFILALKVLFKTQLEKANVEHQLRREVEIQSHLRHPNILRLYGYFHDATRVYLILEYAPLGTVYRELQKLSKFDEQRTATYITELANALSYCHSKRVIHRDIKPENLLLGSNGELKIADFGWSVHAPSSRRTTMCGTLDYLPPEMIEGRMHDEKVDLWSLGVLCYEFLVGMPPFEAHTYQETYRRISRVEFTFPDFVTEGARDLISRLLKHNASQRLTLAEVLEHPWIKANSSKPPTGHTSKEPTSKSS
The experiment can be described thus: Aurora-A Screening Assay. To be noted: murine Aurora-A full length, 10 μM ATP. It is filed as biochemical. As for the experimental part:
as §1, §2
Aurora-A is a fusion protein containing a polyhistidine tag at the N terminus followed by the full length protein encoding the murine Aurora-A (Accession number GB BC014711) expressed and purified from sf9 insect cells. The assay used 400 ng of the N-terminal biotinylated peptide biotin-GRTGRRNSI-amide (Aurora-A) per well.
as §3

The target of experiment [3] is T3, HER-2 (Homo sapiens, UniProt P04626).
T3 construct: the nucleotides encoding amino acids 679 to 1255 of HER-2; HIS6-Thrombin (His6 tag and thrombin site) (N); purchased Proqinase (Freiburg, Germany)
T3 sequence (P04626 679-1255): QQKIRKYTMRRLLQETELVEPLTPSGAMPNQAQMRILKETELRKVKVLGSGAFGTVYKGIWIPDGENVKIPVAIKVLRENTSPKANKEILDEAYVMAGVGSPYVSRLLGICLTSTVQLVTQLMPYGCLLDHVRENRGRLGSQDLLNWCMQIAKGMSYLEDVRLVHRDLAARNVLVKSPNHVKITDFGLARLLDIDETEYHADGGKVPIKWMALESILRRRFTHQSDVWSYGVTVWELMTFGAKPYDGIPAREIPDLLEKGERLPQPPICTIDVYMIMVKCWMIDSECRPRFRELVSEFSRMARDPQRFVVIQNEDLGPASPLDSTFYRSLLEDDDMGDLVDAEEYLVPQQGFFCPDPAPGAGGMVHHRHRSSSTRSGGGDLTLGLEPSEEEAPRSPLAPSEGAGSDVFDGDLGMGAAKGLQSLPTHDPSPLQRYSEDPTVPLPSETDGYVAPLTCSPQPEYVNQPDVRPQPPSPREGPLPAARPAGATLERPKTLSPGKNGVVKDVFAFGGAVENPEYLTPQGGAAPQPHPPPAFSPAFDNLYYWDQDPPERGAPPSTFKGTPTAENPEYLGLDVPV
The experiment can be described thus: HER-2 Kinase Assay. The format is biochemical. Particulars: GST-HER2, 1 μM ATP. As for the experimental part:
HER-2 kinase was purified at Proqinase (Freiburg, Germany) from a construct that consisted of a fusion of GST (Glutathione-S-Transferase), HIS6-Thrombin and the nucleotides encoding amino acids 679 to 1255 of HER-2.
A mixture of a 10× kinase reaction buffer (600 mM Hepes at pH 7.5, 30 mM Magnesium Chloride, 0.03 mM Sodium Vanadate and 500 μg/mL PEG 20,000), DTT (1.2 mM final from a 10 mM stock), ATP (1 μM from a 10 mM stock), biotinylated polyGluTyr (1.5 ng/μL final from stock of 1 μg/μL prepared by Upstate Biotechnologies, Lake Placid, N.Y.), Manganese Chloride (3 mM final from a 1 M stock), γ-^33P-ATP (10 μCi/μL stock) and water (70 μL/well) was added to each well of a Streptavidin Flashplate (Cat. # SMP103, NEN, Boston, Mass.).
Test compound stock (1 μL) was added to the appropriate wells. Diluted GSTHER2 kinase (6.7 ng/μL diluted into 50 mM Tris-HCl at pH 8.0 and 0.1% bovine serum albumin) (30 μL) was added (total volume of 200 ng/well) to initiate the reactions.
The reaction plates were incubated at 30° C. for 1 hr. The reaction was terminated by aspirating the reaction mixture from the plate wells and washing the wells three times with a 1×PBS stop buffer (300 μL) and 100 mM EDTA. After the final wash, the same stop buffer (200 μL) was again added to the wells. The plates were then sealed and read on the TopCount scintillation counter. The IC50 was derived according to the procedure described in Example 1.

In experiment [4] the test system is HeLa cervical adenocarcinoma. The experiment can be described thus: Cell Proliferation Inhibition Assay (14C-thymidine incorporation), HeLa. To be noted: Homo sapiens; HeLa cells. It is filed as cell-based. The protocol: (§4) The ability of a test compound to inhibit unregulated cell proliferation was determined by measuring incorporation of ^14C-labelled thymidine into newly synthesized DNA within cell lines derived from carcinomas originating from several tissues. Accordingly, the anti-proliferative effect of a compound on cells with a variety of phenotypes may be determined.
(§5) Carcinoma cell lines include those such as HeLa cervical adenocarcinoma (American Type Culture Collection (ATCC), Virginia, Cat. #CCL-2), A375 malignant melanoma (ATCC CRL-1619), SK-OV-3 ovarian adenocarcinoma (ATCC HTB-77), HCT-116 colon carcinoma (CCL-247), PC-3 prostate adenocarcinoma (ATCC CRL-1435), and MDA-MB-231 (Xenogen Corp.)
(§6) The carcinoma cells were trypsinized and counted. The cells (3000-8000 count) were added to each well of a 96-well CytoStar tissue culture treated scintillating microplate (Amersham #RPNQ0160) in complete medium (100 μL) and the plate was then incubated in complete medium for 24 hrs at 37° C. in an […] atmosphere containing 5% CO2. Test compound (1 μL) in 100% DMSO was added to the plate test-wells with DMSO only added to control-wells. The plate was incubated in complete medium for a second 24 hr period at 37° C. in an atmosphere containing 5% CO2.
(§7) An aliquot of a solution of methyl ^14C-thymidine (56 mC/mmol) (NEN #NEC568 or Amersham #CFA532) and complete medium (20 uL to provide 0.2 μCi/well) was then added to each well and the plate was incubated for a third 24 hr period at 37° C. in an atmosphere containing 5% CO2. The plate contents were then discarded, the plate was washed twice with PBS (200 μL) and then PBS (200 μL) was added to each well. The plate was sealed and the degree of methyl ^14C-thymidine incorporation was quantified on a Packard Top Count.
Background: Uptake of a labelled nucleoside into DNA is a usual measure of proliferation.

Experiment [5] has as its system A375 malignant melanoma. The experiment can be described thus: Cell Proliferation Inhibition Assay (14C-thymidine incorporation), A375. The format is cell-based. Particulars: Homo sapiens, A-375; A375 cells. As for the experimental part:
as §4, §5, §6, §7

Experiment [6] deals with HCT-116 colon carcinoma. The experiment can be described thus: Cell Proliferation Inhibition Assay (14C-thymidine incorporation), HCT116. To be noted: Homo sapiens, HCT116 cells. The format is cell-based. The protocol:
as §4, §5, §6, §7

What is called IC50 is the concentration needed to halve the response being measured.

T1 sequence (O08775 786-1343): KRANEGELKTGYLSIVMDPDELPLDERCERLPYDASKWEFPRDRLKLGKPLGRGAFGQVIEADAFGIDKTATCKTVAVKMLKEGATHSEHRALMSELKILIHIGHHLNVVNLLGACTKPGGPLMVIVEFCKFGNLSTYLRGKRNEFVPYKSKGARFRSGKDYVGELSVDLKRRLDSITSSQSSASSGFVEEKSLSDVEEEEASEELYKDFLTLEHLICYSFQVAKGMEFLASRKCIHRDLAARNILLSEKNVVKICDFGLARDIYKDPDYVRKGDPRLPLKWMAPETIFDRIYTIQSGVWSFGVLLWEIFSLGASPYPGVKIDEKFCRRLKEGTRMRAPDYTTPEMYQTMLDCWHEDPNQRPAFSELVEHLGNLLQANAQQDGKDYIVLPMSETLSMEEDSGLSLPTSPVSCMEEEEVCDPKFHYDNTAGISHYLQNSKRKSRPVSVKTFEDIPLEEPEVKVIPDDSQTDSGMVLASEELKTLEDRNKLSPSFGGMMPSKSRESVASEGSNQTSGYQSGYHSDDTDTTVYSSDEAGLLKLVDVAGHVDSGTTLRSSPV

In the case of `Cc1c(C(=O)NCCN2CCOCC2)sc2ncnc(Nc3ccc(NC(=O)c4ccccc4)cc3)c12` [Cpd 25, 4-(4-benzoylamino-phenylamino)-5-methyl-thieno[2,3-d]pyrimidine-6-carboxylic acid (2-morpholin-4-yl-ethyl)-amide], the IC50 in experiment [1] was greater than 100 µM; in experiment [2] it was greater than 10 µM; in experiment [3] it was greater than 100 µM; in experiment [4], greater than 10 µM; in experiment [5], greater than 10 µM; in experiment [6] it was greater than 10 µM.

As for `Cc1c(C(=O)NCCCN2CCOCC2)sc2ncnc(Nc3ccc(NC(=O)c4ccccc4)cc3)c12` [Cpd 26, 4-(4-benzoylamino-phenylamino)-5-methyl-thieno[2,3-d]pyrimidine-6-carboxylic acid (3-morpholin-4-yl-propyl)-amide], the IC50 is greater than 100 µM in experiment [1]; greater than 1 µM in experiment [2]; greater than 10 µM in experiment [3]; greater than 10 µM in experiment [4]; greater than 10 µM in experiment [5]; greater than 10 µM in experiment [6].

(Values after US20080108611A1, “SUBSTITUTED THIENOPYRIMIDINE KINASE INHIBITORS” (priority 2006, published 2008).)
